Values of other authors as cited in patent US12157728B2, “Targeting of endoplasmic reticulum dysfunction and protein folding stress to treat neurological conditions” (ALS Therapy Development Institute, priority 2018, dated 2024).
Counter-ions that a name gives are not always drawn.

Columns and labels:
[1] = tested on: GADD34/protein phosphatase 1 (PP1)
[2] = in vivo
[3] = not given; remark: listed apart in the source
[4] = tested on: ER stress-mediated apoptosis; details: induced by tunicamycin
[5] = tested on: β-amyloid-induced neuronal death

Row | solubility in 0.9% saline and aqueous buffers (0.9% saline and aqueous buffers at or below pH 2.0) | solubility in water (water) | SMILES | solubility in aqueous buffers (aqueous buffers at or above pH 3.0) | motor neuron degeneration (SOD1 mice) | survival (SOD1 mice) | cell death induced by α-synuclein (PC12 cells) | eIF2α dephosphorylation via GADD34/PP1 complex [1] | clearance [2] | solubility in aqueous solutions [3] | ER stress-mediated apoptosis [4] | β-amyloid-induced neuronal death and microglial activation [5]
1 | soluble | > 10% | CCCCCCCCc1ccc(CCC(N)(CO)CO)cc1 [Fingolimod hydrochloride] | very slightly soluble or practically insoluble |  |  |  |  |  |  |  | 
2 |  |  | O=C(/C=C/c1ccccc1)NC(NC(=S)Nc1cccc2cccnc12)C(Cl)(Cl)Cl (centres unmarked) [Salubrinal, N-(2,2,2-trichloro-1-(3-(quinolin-8-yl)thioureido)ethyl)cinnamamide] |  | slowed motor neuron degeneration | extended survival | protected PC12 cells from cell death | prevent eIF2α dephosphorylation | rapid clearance | low solubility | inhibit ER stress-mediated apoptosis | attenuate β-amyloid-induced neuronal death and microglial activation
